Read-outs that look alike come from different tables or passages of the source.
What was measured:
[1] = test system: FECD corneal endothelium attached to the Descemet membrane; experiment: Endothelial cell apoptosis (TUNEL) in post-keratoplasty FECD specimens, +/- tBHP; format: cell-based, human
Description: Immunocytochemistry. […] After permeabilization, corneas were incubated with goat anti-8-OHdG (1:200; Millipore) followed by incubation with appropriate secondary antibodies. Nuclei were stained with TO-PRO-3 iodide (Molecular Probes). Corneal endothelial tight junctions were detected by rabbit anti-zonula occludens-1 (anti-ZO-1) antibody (1:300; Invitrogen).
An Nrf2-controlled pathway is affected during the endothelial cell loss from surgery and from dystrophic degeneration. […] Nrf2 is a transcription factor that causes a coordinated upregulation of multiple antioxidants, such as glutathione transferases, glutathione peroxidases, peroxiredoxins, thioredoxins, NADH(P)H hydrogenases, heme-oxygenases, glutamate- cysteine ligases. Sulforaphane (SF) and D3T upregulate Nrf2 on a protein level and enhance cellular antioxidant defense. Thus, studies were carried out to investigate the effect of SF on endothelial cell apoptosis with and without pro-oxidants. Post-keratoplasty FECD specimens, containing corneal endothelium attached to the Descemet membrane, were exposed to four experimental conditions: +/− tBHP with is a long acting pro-oxidant and +/−SF. The rate of endothelial cell apoptosis (as detected by TUNEL) in FECD endothelium was 31% and it decreased to 13% (p=1.5E-06) with SF treatment. Under pro-oxidant conditions, SF decreased endothelial cell apoptosis from 60% to 33% (p=0.016) (FIG. 11A). Similarly, D3T diminished endothelial cell apoptosis by decreasing the number of apoptotic cells from 52% to 30% (p<0.05) (FIG. 11B).

[2] = test system: mouse corneal endothelium; conditions: 1 μM
Description: (§1) Corneal Whole Mount Assays. Eight (8-) to 12-wk-old male BALB/c and C57BL/6 (from Taconic Farms, Germantown, NY and our own breeding facility) were used for corneal whole mount assays. All protocols were approved by the Schepens Eye Research Institute Animal Care and Use Committee, and all animals were treated according to the Association for Research in Vision and Ophthalmology Statement for the Use of Animals in Ophthalmic and Vision Research. […] Control corneal buttons were incubated in DMEM only at 37° C. for 0-12 hours. Immunocytochemistry. Immunocytochemistry was performed as previously described.17 Normal, FECD, and PBK corneas were incubated in culture medium containing 100 nM MitoTracker Red CMXRos (Molecular Probes) for 30 minutes at 37° C., then fixed with 3.7% formaldehyde. […] Millipore) followed by incubation with appropriate secondary antibodies. Nuclei were stained with TO-[…] iodide (Molecular Probes). […] Invitrogen). […] Bioscience), propidium iodide (1:200; Invitrogen), and TUNEL assay (In Situ Cell Death Detection Kit, Roche Diagnostics GmbH) according to the manufacturers' instructions. Digital images were obtained using a spectral photometric confocal microscope ([…][…] with LCS 1.3.1 software).

[3] = test system: Nrf2 mRNA expression in HCECi; conditions: H2O2 200 μM, 2 hours; normalized to B2M; non-treated control 1.00±0.05; P=0.004
Description: Human Corneal Endothelial Cell Culture. […] The culture medium of subconfluent cells was replaced with serum-free medium (OptiMEM-1; Invitrogen-Life Technologies) alone or supplemented with H2O2 (200 μM) and incubated for 2 hours at 37° C. At the end of the treatment, cell viability was evaluated by trypan blue staining. Real-time PCR. […] Reverse transcription was performed using a commercially available kit (Promega). […] Real-time PCR reactions were run on an ABI Prism 7500 HT Sequence Detection System (Applied Biosystems). For data analysis, the comparative Ct method was performed.

[4] = test system: HCECi; conditions: H2O2 200 μM, 2 hours; P=0.001
Description: Human Corneal Endothelial Cell Culture. […] The culture medium of subconfluent cells was replaced with serum-free medium (OptiMEM-1; Invitrogen-Life Technologies) alone or supplemented with H2O2 (200 μM) and incubated for 2 hours at 37° C. At the end of the treatment, cell viability was evaluated by trypan blue staining.

[5] = test system: mouse corneal endothelium; conditions: 30 minutes
Description: as §1, with “software). Analysis of CE Cell Morphology. […] (variation in cell size) and pleomorphism (variation in cell shape) were then calculated.” for “software).”

## S=c1ccss1 [D3T, 3H-1,2-dithiole-3-thione]
[1]; FECD, absence of oxidative stress, 52% without D3T, p<0.05
  number of apoptotic cells with D3T: 30%
[1]; absence of oxidative stress
  effect on percentage of apoptotic cells in FECD: decreased the percentage of apoptotic cells

## OO [H2O2, hydrogen peroxide]
[2]; 1-hour treatment
  mitochondrial staining (MitoTracker CMXRos): decline in the mitochondrial density
[2]; 2-hour treatment, P<0.01
  mitochondrial staining (MitoTracker CMXRos): no detectable mitochondrial staining
[2]; 60 minutes, P<0.01
  CE cells with early apoptosis (annexin-V-positive, PI-negative): Approximately 5%
[2]; 90 minutes, P<0.01
  CE cells with early apoptosis (annexin-V-positive, PI-negative): ~11%
  mitochondrial staining (MitoTracker CMXRos): significant decrease
[2]; 120 minutes, P<0.01
  late apoptosis (annexin-V-positive, PI-positive): identified
[3]
  relative expression of Nrf2 mRNA (mean±SEM): 0.66±0.02
[4]
  level of 8-OHdG relative to control cells: 2 fold
[5]; 0-100 μM
  CE cell density as measured by ZO-1 labeling: no statistically significant effect
[5]; 100 μM, P=0.007
  percent of hexagonal cells (pleomorphism): declined significantly

## C[S+]([O-])CCCCN=C=S (stereo not shown) [SF, sulforaphane]
[1]; FECD endothelium, without pro-oxidant (tBHP-), 31% without SF, p=1.5E-06
  rate of endothelial cell apoptosis (as detected by TUNEL) with SF treatment: 13%
[1]; FECD specimens exposed to tBHP, 60% without SF, p=0.016
  endothelial cell apoptosis with SF under pro-oxidant conditions: 33%
[1]; SF treatment, without pro-oxidant conditions [tBHP-], p=1.57E-06
  decrease of endothelial cell apoptosis in FECD: 58%
[1]; specimens exposed to pro-oxidants or tBHP, p=0.016
  decrease of endothelial cell apoptosis: ≤ 45%

Reference: US20160175380A1, “Compositions and Methods of Treatment of Corneal Endothelium Disorders” (The Schepens Eye Research Institute, Inc., priority 2010, published 2016)
